Counter-ions that a name gives are not always drawn. Active and inactive are the calls of the source.
Legend:
Protein Tat = target: T1, Protein Tat (Human immunodeficiency virus type 1 group M subtype B (isolate HXB2)(HIV-1), UniProt P04608); format: functional;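 also: tat binding to TAR RNA read out by fluorescence polarization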
T1 sequence (P04608 whole entry): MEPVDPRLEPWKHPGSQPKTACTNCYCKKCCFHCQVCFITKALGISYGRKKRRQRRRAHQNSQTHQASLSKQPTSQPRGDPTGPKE

[1] = target: T2, Oxysterols receptor LXR-beta (Homo sapiens, UniProt P55055); assay: LXR agonists, Gal4 luciferase reporter, dose response, counter-screen for ssDAF-12 agonist project, cell-based, luminescence, HEK293, S. stercoralis campaign (AID 720737); format: functional; conditions: read-out: IC50 (the source's name)
T2 sequence (P55055 whole entry): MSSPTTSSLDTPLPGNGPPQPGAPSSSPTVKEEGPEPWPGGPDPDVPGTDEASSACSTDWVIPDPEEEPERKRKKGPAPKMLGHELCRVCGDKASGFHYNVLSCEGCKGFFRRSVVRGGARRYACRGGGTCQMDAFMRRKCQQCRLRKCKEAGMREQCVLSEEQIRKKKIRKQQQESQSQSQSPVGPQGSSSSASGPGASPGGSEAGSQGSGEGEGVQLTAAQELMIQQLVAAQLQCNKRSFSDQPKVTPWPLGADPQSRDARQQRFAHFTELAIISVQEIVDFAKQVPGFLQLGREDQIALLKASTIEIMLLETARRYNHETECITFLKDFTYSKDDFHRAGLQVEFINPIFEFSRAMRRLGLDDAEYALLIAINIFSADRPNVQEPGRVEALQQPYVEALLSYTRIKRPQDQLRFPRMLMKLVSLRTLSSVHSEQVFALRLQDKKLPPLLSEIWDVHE

[2] = Luminescence-based cell-based high throughput dose response assay to identify activators of the DAF-12 from the parasite S. stercoralis (ssDAF-12).; format: functional
[3] = glucagon-like peptide-1 release potency in STC-1, concentration-response, half-maximal inhibitory concentration in the STC-1 line (AID 1117345); format: functional, cell-based
[4] = Potency on glucagon-like peptide 1 release, dose-response in NCI-H716 cell line, half maximal inhibitory concentration (AID 1117344); format: functional, cell-based
[5] = loss of viability in HepG2 cells – cell-based, CellTiter-Glo, cherry-picked, cytotoxicity control for Shn3 inhibitor project, dose response (AID 624134); format: functional
[6] = target: T3, Ubiquitin-conjugating enzyme E2 N (Homo sapiens, UniProt P61088); format: functional;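 also: Dose-response confirmation in a TR-FRET assay detecting UBC13-driven polyubiquitin chain formation, inhibition measured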
T3 sequence (P61088 whole entry): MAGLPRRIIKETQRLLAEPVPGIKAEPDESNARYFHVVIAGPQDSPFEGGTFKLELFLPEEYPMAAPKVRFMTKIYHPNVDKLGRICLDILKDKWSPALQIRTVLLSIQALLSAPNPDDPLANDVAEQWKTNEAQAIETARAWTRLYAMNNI

INS1 = assay: INS-1E survival protection against cytokine death – cell-based, luminescence, retest, dose response (AID 449756); format: functional; conditions: Rattus norvegicus;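 also: cell death triggered by IL-1 beta plus TNF-alpha plus IFN-gamma mixture; protective hits raise ATP signal compared with cytokine alone wells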
[7] = viability of PTEN-deleted HCT116 cells – cell-based, HCT116 PTEN knockout, dose response (AID 1047); format: functional;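 also: HCT116 colon tumor cells with PTEN knocked out; cells exposed to compound for 60 hours before readout; potency for loss of cell viability measured by luminescence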
[8] = microbe, parasite or virus in culture; format: functional; conditions: Mycobacterium tuberculosis
[9] = non-specific 3'UTR reporter inhibition in Clone20-Shn3RL – cell-based, Renilla luciferase, cherry-picked, counter-screen for Shn3 inhibitor project, dose response (AID 624133); format: functional
[10] = alpha-synuclein stem-loop luciferase translation blockers – H4 neuroglioma cells, luminescence, confirmation (AID 1988); format: functional, cell-based
[11] = reduction of Shn3 3'UTR-driven luciferase in osteoblasts – cell-based, Clone20 osteoblasts, firefly luciferase, cherry-picked, dose response (AID 624132); format: functional;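 also: firefly luciferase luminescence from reporter carrying the Shn3 3'UTR in osteoblasts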
[12] = Luminescence Cell-Based Dose Response HTS to Identify Inhibitors of 5'UTR Stem-Loop Driven Prion Protein mRNA Translation in H4 Neuroglioblastoma Cells. [Related pubchem assays: 1827 (Project Summary), 1813 (Primary HTS)]; format: functional
[13] = viability of HCT116 lacking mutant beta-catenin – cell-based, human colon tumor, dose response (AID 1045); format: functional;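 also: HCT116 colon tumor cells with beta catenin knocked out; cells exposed to compound for 60 hours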
[14] = luciferase reporter signal suppression in cells – H4 neuroglioma cells, luminescence, dose response (AID 1990); format: functional, cell-based
Escherichia coli [15] = assay: microbe, parasite or virus in culture
[16] = target: T4, Aryl hydrocarbon receptor (Homo sapiens, UniProt P35869); conditions: Potency;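 also: confirmatory quantitative high-throughput screen measuring activation of the AhR signaling pathway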
T4 sequence (P35869 whole entry): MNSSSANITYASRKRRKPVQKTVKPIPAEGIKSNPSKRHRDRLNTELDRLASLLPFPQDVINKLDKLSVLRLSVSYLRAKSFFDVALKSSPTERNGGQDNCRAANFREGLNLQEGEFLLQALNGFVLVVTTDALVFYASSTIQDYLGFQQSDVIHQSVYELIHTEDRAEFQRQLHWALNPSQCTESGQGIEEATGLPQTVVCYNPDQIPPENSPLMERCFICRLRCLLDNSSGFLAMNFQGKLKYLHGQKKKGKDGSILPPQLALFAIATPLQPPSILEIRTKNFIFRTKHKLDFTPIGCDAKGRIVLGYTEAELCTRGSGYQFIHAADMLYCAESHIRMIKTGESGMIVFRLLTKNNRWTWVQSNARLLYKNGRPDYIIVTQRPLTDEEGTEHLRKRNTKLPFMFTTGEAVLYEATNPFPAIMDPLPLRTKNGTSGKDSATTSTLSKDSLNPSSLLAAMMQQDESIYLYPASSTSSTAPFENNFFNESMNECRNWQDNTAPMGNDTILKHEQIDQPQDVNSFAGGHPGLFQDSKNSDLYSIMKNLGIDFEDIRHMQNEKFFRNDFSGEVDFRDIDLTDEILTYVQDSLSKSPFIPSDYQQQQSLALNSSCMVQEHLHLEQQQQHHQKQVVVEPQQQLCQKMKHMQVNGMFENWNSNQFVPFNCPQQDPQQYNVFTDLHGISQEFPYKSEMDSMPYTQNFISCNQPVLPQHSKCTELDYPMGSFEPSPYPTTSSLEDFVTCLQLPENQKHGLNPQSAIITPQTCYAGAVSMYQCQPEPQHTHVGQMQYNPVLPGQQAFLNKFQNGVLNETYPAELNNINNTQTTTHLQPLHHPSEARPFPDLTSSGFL

[17] = target: Heat shock protein HSP 90-alpha (Homo sapiens, UniProt P07900); format: functional, organism-based
Escherichia coli [18] = assay: microbe, parasite or virus in culture; remark: listed apart in the source

CC1(C)Cc2nc3sc4c(SCC(=O)NCc5ccco5)ncnc4c3cc2CO1
IC50 (Protein Tat): > 100 µM (active)

Cc1nn(Cc2ccccc2)c(Cl)c1/C=N/NC(=O)c1cccnc1
EC50 [1]: > 67.5 µM (inactive)
IC50 [2]: > 67.5 µM (inactive)

C[C@@H](NCCCc1cccc(C(F)(F)F)c1)c1cccc2ccccc12 [CINACALCET HYDROCHLORIDE]
IC50 [3]: > 40 µM (inactive)
IC50 [4]: 17.2 µM (inactive)

CC(C)(C)c1ccc(C(O)CCCN2CCC(C(O)(c3ccccc3)c3ccccc3)CC2)cc1 (centres undefined) [TERFENADINE]
AC50 [5]: 11.4 µM (active)
IC50 [6]: > 20 µM (inactive)
AC50 (INS1): 8.13 µM (active)
EC50 [7]: 4.43 µM (active)
IC50 [3]: > 40 µM (inactive)
CC50 [8]: 9.24 µM (active)
AC50 [9]: 12.9 µM (active)
EC50 [10]: 4.26 µM (active)
AC50 [11]: 16.7 µM (active)
EC50 [12]: 6.46 µM (active)
IC50 [4]: 20.5 µM (inactive)
EC50 [13]: 4.55 µM (active)
EC50 [14]: > 120 µM (not active)

Oc1cc(Cl)ccc1Oc1ccc(Cl)cc1Cl [TRICLOSAN]
IC50 [3]: 2.55 µM (active)
AC50 (Escherichia coli [15]): 0.329 µM (active)
AC50 [16]: 70.8 µM (inconclusive)
IC50 [4]: 21.3 µM (inactive)
AC50 [17]: 7.85 µM (active)
AC50 (Escherichia coli [18]): 1.06 µM (active)

— ChEMBL document CHEMBL1201862, “PubChem BioAssay data set” (2004)
